Results as given in EPA's ToxRefDB 2.

How the values were obtained:
mouse [1] = settings: Prenatal developmental toxicity study, other, Injection, Intraperitoneal, dose end: 15 GD
rabbit = settings: Prenatal developmental toxicity study, himalayan, Dermal, Topical, dose end: 18 GD
mouse [2] = settings: Subchronic oral toxicity in rodents, cd1, Feed, dose end: 119 day, group: systemic
[3] = group: developmental, developmental / developmental malformation / bone / exencephaly
[4] = group: maternal, reproductive / reproductive performance / resorptions / resorptions
[5] = group: maternal, reproductive / reproductive performance / resorptions / resorptions + systemic / in life observation / body weight / body weight + systemic…
[6] = group: developmental, developmental / developmental malformation / general / [other]
[7] = group: maternal, systemic / in life observation / body weight / body weight + systemic / in life observation / clinical signs / skin ulceration
[8] = systemic / organ weight / liver / absolute + systemic / organ weight / liver / relative to body weight + systemic / pathology microscopic / …

CN(C)C=O [N,N-Dimethylformamide]
LEL (mouse [1]; [3]): 944 mg/kg/day | LOAEL (mouse [1]; [3]): > 944 mg/kg/day | NEL (mouse [1]; [3]): 378 mg/kg/day | NOAEL (mouse [1]; [3]): ≥ 944 mg/kg/day | LEL (mouse [1]; [4]): 378 mg/kg/day | NEL (mouse [1]; [4]): < 378 mg/kg/day | LOAEL (mouse [1]; [5]): > 944 mg/kg/day | NOAEL (mouse [1]; [5]): ≥ 944 mg/kg/day | LEL (rabbit; [6]): 400 mg/kg/day | LOAEL (rabbit; [6]): > 400 mg/kg/day | NEL (rabbit; [6]): 200 mg/kg/day | NOAEL (rabbit; [6]): ≥ 400 mg/kg/day | LEL (rabbit; [7]): 400 mg/kg/day | LOAEL (rabbit; [7]): > 400 mg/kg/day | NEL (rabbit; [7]): 200 mg/kg/day | NOAEL (rabbit; [7]): ≥ 400 mg/kg/day | LOAEL (mouse [2]; [8]): > 246 mg/kg/day | NOAEL (mouse [2]; [8]): ≥ 246 mg/kg/day | LEL (mouse [2]; systemic / organ weight / liver / relative to body weight): 96 mg/kg/day | NEL (mouse [2]; systemic / organ weight / liver / relative to body weight + systemic / clinical chemistry / alanine aminotransferase (alt/sgpt) / alanine …): 28 mg/kg/day
